In PubChem BioAssay AID743142 (Broad Institute, 2013):
Records with an inconclusive call do not appear. Activity calls are given as the source filed them.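 Rule for the calls: active = sample lowering the cell viability signal whose fitted half-effect dose is at or below its top tested dose; inconclusive = flat fit with 30 to 70 percent loss, or poor fit; inactive = the rest, including effects in the wrong direction.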

Test system: not listed separately
Experiment: HEK293T viability loss – cell-based, ATP luminescence, dry powder, Set6, cytotoxicity control, dose response (AID 743142)
Details: HEK293T viability, ATP luminescence (CellTiter-Glo), 72 h; at 12 µM (top of the series)

Q: With `CC(NC(=O)CCNC(=O)c1ccc(Cl)cc1)c1ccc(F)cc1` (stereo unspecified) as the compound, how does the activity change, negative = cytotoxicity read?
A: The activity change, negative = cytotoxicity was 41.6% (inactive).

Same assay, conditions: HEK293T viability, ATP luminescence (CellTiter-Glo), 72 h; at 26 µM (top of the series)

Q: Which activity change, negative = cytotoxicity does the source give for `O=C(CCCNC(=O)c1ccc(C(F)(F)F)cc1)N[C@@H]1CCCc2ccccc21` here?
A: Its activity change, negative = cytotoxicity is 49.1% (inactive).

Q: For `Cc1cccc(C(=O)NCCC(=O)NC2CCCc3ccccc32)c1` (stereo unspecified), which activity change, negative = cytotoxicity is on record?
A: Its activity change, negative = cytotoxicity is -15.8% (inactive).

Q: Which activity change, negative = cytotoxicity does the source give for `O=C(CNC(=O)c1ccc(Cl)c(Cl)c1)N[C@@H]1CCCc2ccccc21` here?
A: Its activity change, negative = cytotoxicity is -24.4% (inactive).

Q: Which activity change, negative = cytotoxicity does the source give for `O=C(NC1CCc2ccccc21)C1CCCN(C(=O)c2ccc(Cl)cc2)C1` (stereo unspecified) here?
A: The activity change, negative = cytotoxicity was -34.8% (inactive).

Q: Which activity change, negative = cytotoxicity does the source give for `C[C@@H](NC(=O)CCNC(=O)c1ccc(Cl)cc1)c1ccccc1` here?
A: Its activity change, negative = cytotoxicity is 19.9% (inactive).

Q: Which activity change, negative = cytotoxicity does the source give for `COc1ccccc1C(C)NC(=O)CCNC(=O)c1ccc(Cl)cc1` (stereo unspecified) here?
A: The activity change, negative = cytotoxicity was -9.14% (inactive).

Q: With `O=C(CCCNC(=O)c1ccc(OC(F)(F)F)cc1)N[C@@H]1CCCc2ccccc21` as the compound, how does the activity change, negative = cytotoxicity read?
A: Its activity change, negative = cytotoxicity is 48.5% (inactive).

Q: With `CC(C)(C)OC(=O)NCCC(=O)N[C@H]1CCCc2ccccc21` as the compound, how does the activity change, negative = cytotoxicity read?
A: Its activity change, negative = cytotoxicity is -17.3% (inactive).

Q: For `CC(NC(=O)CCNC(=O)c1ccc(Cl)cc1)c1ccc2c(c1)OCO2` (stereo unspecified), which activity change, negative = cytotoxicity is on record?
A: The activity change, negative = cytotoxicity was 21.1% (inactive).

Q: For `O=C(CCNC(=O)c1ccccc1)N[C@@H]1CCCc2ccccc21`, which activity change, negative = cytotoxicity is on record?
A: Its activity change, negative = cytotoxicity is -39.6% (inactive).

Q: Which activity change, negative = cytotoxicity does the source give for `O=C(CCNC(=O)c1ccc(Cl)cc1)NC1CCCCC1` here?
A: The activity change, negative = cytotoxicity was 13% (inactive).

Q: For `O=C(CNC(=O)c1ccc(OC(F)(F)F)cc1)N[C@@H]1CCCc2ccccc21`, which activity change, negative = cytotoxicity is on record?
A: The activity change, negative = cytotoxicity was 1.28% (inactive).

Q: Which activity change, negative = cytotoxicity does the source give for `COc1ccccc1C(=O)NCCC(=O)NC1CCCc2ccccc21` (stereo unspecified) here?
A: The activity change, negative = cytotoxicity was -2.09% (inactive).

Q: Which activity change, negative = cytotoxicity does the source give for `O=C(CCNC(=O)c1ccc(Cl)cc1)N[C@H]1CCCc2ccccc21` here?
A: Its activity change, negative = cytotoxicity is -23.6% (inactive).

Q: Which activity change, negative = cytotoxicity does the source give for `COc1cc(C(=O)NCCC(=O)NC2CCCc3ccccc32)cc(OC)c1OC` (stereo unspecified) here?
A: The activity change, negative = cytotoxicity was -40.5% (inactive).

Q: For `CC(c1ccccc1)N(C)C(=O)CCNC(=O)c1ccc(Cl)cc1` (stereo unspecified), which activity change, negative = cytotoxicity is on record?
A: Its activity change, negative = cytotoxicity is -5.44% (inactive).

Q: With `O=C(CCNC(=O)c1ccccc1Cl)NC1CCCc2ccccc21` (stereo unspecified) as the compound, how does the activity change, negative = cytotoxicity read?
A: The activity change, negative = cytotoxicity was 10.9% (inactive).

Q: Which activity change, negative = cytotoxicity does the source give for `CC(CC(=O)NC1CCCc2ccccc21)NC(=O)c1ccccc1` (stereo unspecified) here?
A: The activity change, negative = cytotoxicity was -38.5% (inactive).

Q: With `O=C(NC1CCOc2ccccc21)C1CCCN(C(=O)c2ccc(Cl)cc2)C1` (stereo unspecified) as the compound, how does the activity change, negative = cytotoxicity read?
A: Its activity change, negative = cytotoxicity is -5.89% (inactive).

Q: Which activity change, negative = cytotoxicity does the source give for `NCCC(=O)N[C@@H]1CCCc2ccccc21` here?
A: Its activity change, negative = cytotoxicity is 27.3% (inactive).

Q: For `CC(=O)NCCC(=O)N[C@@H]1CCCc2ccccc21`, which activity change, negative = cytotoxicity is on record?
A: Its activity change, negative = cytotoxicity is 10.6% (inactive).

Q: With `CN(C(=O)CCNC(=O)c1ccc(F)cc1F)C1CCCc2ccccc21` (stereo unspecified) as the compound, how does the activity change, negative = cytotoxicity read?
A: Its activity change, negative = cytotoxicity is 7.5% (inactive).

Q: With `CC(C)(C)OC(=O)NCCC(=O)N[C@@H]1CCCc2ccccc21` as the compound, how does the activity change, negative = cytotoxicity read?
A: The activity change, negative = cytotoxicity was -2.95% (inactive).

Q: Which activity change, negative = cytotoxicity does the source give for `CC(CC(=O)N(C)C1CCCc2ccccc21)NC(=O)c1ccccc1` (stereo unspecified) here?
A: Its activity change, negative = cytotoxicity is -30% (inactive).

Q: With `O=C(CNC(=O)c1ccc(Cl)cc1)N[C@@H]1CCCc2ccccc21` as the compound, how does the activity change, negative = cytotoxicity read?
A: The activity change, negative = cytotoxicity was -4.76% (inactive).

Q: With `CC(NC(=O)C1CCCN(C(=O)c2ccc(Cl)cc2)C1)c1ccccc1` (stereo unspecified) as the compound, how does the activity change, negative = cytotoxicity read?
A: The activity change, negative = cytotoxicity was 64.4% (inactive).

Q: Which activity change, negative = cytotoxicity does the source give for `O=C(CNC(=O)c1ccc(C(F)(F)F)cc1)N[C@@H]1CCCc2ccccc21` here?
A: The activity change, negative = cytotoxicity was -8.54% (inactive).

Q: Which activity change, negative = cytotoxicity does the source give for `O=C(CCCNC(=O)c1ccc(Cl)c(Cl)c1)N[C@@H]1CCCc2ccccc21` here?
A: The activity change, negative = cytotoxicity was 8.38% (inactive).

Q: With `O=C(CCCNC(=O)c1ccc(Cl)cc1)N[C@@H]1CCCc2ccccc21` as the compound, how does the activity change, negative = cytotoxicity read?
A: Its activity change, negative = cytotoxicity is 2.4% (inactive).

Test system: HEK293T viability, ATP luminescence (CellTiter-Glo), 72 h
Experiment: as above
Details: not given

Q: With `O=C(CCNC(=O)c1ccc(Cl)cc1)NC1CCCc2ccccc21` (stereo unspecified) as the compound, how does the AC50 read?
A: The AC50 was 7.73 µM.
